From US7109213B2, “Aminopiperidine compounds, process for their preparation, and pharmaceutical compositions containing them” (Glaxo Group Limited, priority 2002, dated 2006)

How the values were obtained:
Test in all cases: MIC of test compounds against various organisms
Assay type in all cases: cell-based
E. coli 7623 = conditions: Escherichia coli, range stated for all organisms of the panel
Excerpt: (§1) The MIC (μg/ml) of test compounds against various organisms may be determined: S. epidermidis CL7, S. aureus WCUH29, S. pneumoniae 1629, S. pyogenes CN10, H. influenzae ATCC49247, E.faecalis 2, E. faecium 8, M. catarrhalis Ravisio, E. coli 7623.

E. faecium 8 = conditions: Enterococcus faecium, range stated for all organisms of the panel
Excerpt: as §1

E.faecalis 2 = conditions: Enterococcus faecalis, range stated for all organisms of the panel
Excerpt: as §1

H. influenzae ATCC49247 = conditions: Haemophilus influenzae, range stated for all organisms of the panel
Excerpt: as §1

M. catarrhalis Ravisio = conditions: Moraxella catarrhalis, range stated for all organisms of the panel
Excerpt: as §1

S. aureus WCUH29 = conditions: Staphylococcus aureus, range stated for all organisms of the panel
Excerpt: as §1

S. epidermidis CL7 = conditions: Staphylococcus epidermidis, range stated for all organisms of the panel
Excerpt: as §1

S. pneumoniae 1629 = conditions: Streptococcus pneumoniae, range stated for all organisms of the panel
Excerpt: as §1

S. pyogenes CN10 = conditions: Streptococcus pyogenes, range stated for all organisms of the panel
Excerpt: as §1

- MIC (E. coli 7623): 0.06 to 16 µg/mL
- MIC (E. faecium 8): 0.06 to 16 µg/mL
- MIC (E.faecalis 2): 0.06 to 16 µg/mL
- MIC (H. influenzae ATCC49247): 0.06 to 16 µg/mL
- MIC (M. catarrhalis Ravisio): 0.06 to 16 µg/mL
- MIC (S. aureus WCUH29): 0.06 to 16 µg/mL
- MIC (S. epidermidis CL7): 0.06 to 16 µg/mL
- MIC (S. pneumoniae 1629): 0.06 to 16 µg/mL
- MIC (S. pyogenes CN10): 0.06 to 16 µg/mL
Structure (SMILES): COc1ccc2nccc([C@@H](O)CN3CCC(NCc4cnc5snnc5c4)C(F)C3)c2n1 (single isomer, unassigned) [Example 3]
